Data published in PubChem BioAssay AID330 (DTP/NCI, 2004).
Several values for one entry are separate records, joined by “and”; a condition that tells them apart may be missing. Equal entries are not always repeated. Toxic doses and inconclusive results are not listed. Peptide text beside a SMILES is read from it.

System: P388 leukemia ip, CD2F1 mice, survival T/C
Experiment: NCI In Vivo Anticancer Drug Screen. Data for tumor model P388 Leukemia (intraperitoneal) in CD2F1 (CDF1) mice
Conditions: endpoint: median survival time, higher = longer survival
Outline: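 Mice carrying the transplanted tumor received test compound or vehicle. Survival was recorded in each group, and the value is the treated-group measurement divided by that of the vehicle-treated control group.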

[1] = dose: 50.0 mg/kg/injection, schedule: Q01DX005 (ip), vehicle: saline
[2] = dose: 100.0 mg/kg/injection, schedule: Q01DX005 (ip), vehicle: saline
[3] = dose: 200.0 mg/kg/injection, schedule: Q01DX005 (ip), vehicle: saline
[4] = dose: 60.0 mg/kg/injection, schedule: Q01DX005 (ip), vehicle: Klucel (hydroxypropylcellulose) (HPC)
[5] = dose: 120.0 mg/kg/injection, schedule: Q01DX005 (ip), vehicle: Klucel (hydroxypropylcellulose) (HPC)
[6] = dose: 240.0 mg/kg/injection, schedule: Q01DX005 (ip), vehicle: Klucel (hydroxypropylcellulose) (HPC)
[7] = dose: 50.0 mg/kg/injection, schedule: Q01DX009 (ip), vehicle: Klucel (hydroxypropylcellulose) (HPC)

## CC(C)CC(NC(=O)C(N)CCCN=C(N)N)C(=O)O (stereo not drawn) (H-Arg-Leu-OH; configuration not given here)
[1]
  T/C: 100 % of control
[2]
  T/C: 100 % of control
[3]
  T/C: 106 % of control

## CCOC(=O)c1c(C)c(-c2ccccc2)c(-c2ccccc2)c(C)c1-c1ccccc1
dose: 50.0 mg/kg/injection, schedule: Q01DX009 (ip), vehicle: saline with Tween-80
  T/C: 97 % of control
dose: 100.0 mg/kg/injection, schedule: Q01DX009 (ip), vehicle: saline with Tween-80
  T/C: 100 % of control
dose: 200.0 mg/kg/injection, schedule: Q01DX009 (ip), vehicle: saline with Tween-80
  T/C: 92 % of control

## COc1cc(C(c2c(O)c3ccccc3oc2=O)c2c(O)c3ccccc3oc2=O)cc(OC)c1O
dose: 60.0 mg/kg/injection, schedule: Q01DX005 (ip), vehicle: saline with Tween-80
  T/C: 99 % of control
dose: 120.0 mg/kg/injection, schedule: Q01DX005 (ip), vehicle: saline with Tween-80
  T/C: 111 % of control

## C=C1C(=O)OC2/C=C(/COC(=O)CCCCC)CCC(OCC)C3=CC(OC3=O)C12 (centres undefined)
dose: 4.0 mg/kg/injection, schedule: Q01DX009 (ip), vehicle: Klucel (hydroxypropylcellulose) (HPC)
  T/C: 105 % of control
dose: 8.0 mg/kg/injection, schedule: Q01DX009 (ip), vehicle: Klucel (hydroxypropylcellulose) (HPC)
  T/C: 105 % of control
dose: 16.0 mg/kg/injection, schedule: Q01DX009 (ip), vehicle: Klucel (hydroxypropylcellulose) (HPC)
  T/C: 108 % of control
dose: 32.0 mg/kg/injection, schedule: Q01DX009 (ip), vehicle: Klucel (hydroxypropylcellulose) (HPC)
  T/C: 123 % of control

## O=C(O)c1ccccc1Nc1ccccc1[N+](=O)[O-]
dose: 50.0 mg/kg/injection, schedule: Q04DX003 (ip), vehicle: saline
  T/C: 94 % of control
dose: 100.0 mg/kg/injection, schedule: Q04DX003 (ip), vehicle: saline
  T/C: 99 % of control
dose: 200.0 mg/kg/injection, schedule: Q04DX003 (ip), vehicle: saline
  T/C: 102 % of control
dose: 400.0 mg/kg/injection, schedule: Q04DX003 (ip), vehicle: saline
  T/C: 105 % of control

## CN1C(=O)N(C)N(Cc2ccccc2)C(=O)N1Cc1ccccc1
[4]
  T/C: 97 % of control
[5]
  T/C: 100 % of control
[6]
  T/C: 96 % of control

## C=CCn1c(NC2=C(Cl)C(=O)c3ccccc3C2=O)cc(=O)[nH]c1=O
dose: 12.5 mg/kg/injection, schedule: Q01DX009 (ip), vehicle: Klucel (hydroxypropylcellulose) (HPC)
  T/C: 104 % of control
dose: 25.0 mg/kg/injection, schedule: Q01DX009 (ip), vehicle: Klucel (hydroxypropylcellulose) (HPC)
  T/C: 98 % of control
[7]
  T/C: 99 % of control and 98 % of control

## CCOC(=O)C1C(c2ccc(OC)cc2)c2cc3c(cc2OC1(C)N1CCCC1)OCO3 (centres undefined)
[4]
  T/C: 98 % of control
[5]
  T/C: 96 % of control
[6]
  T/C: 93 % of control

## CCCCCc1cc(O)c2c3c(c(=O)oc2c1)CP(=O)(c1ccccc1)CC3 (centres undefined)
dose: 100.0 mg/kg/injection, schedule: Q01DX001 (ip), vehicle: saline with Tween-80
  T/C: 102 % of control
dose: 200.0 mg/kg/injection, schedule: Q01DX001 (ip), vehicle: saline with Tween-80
  T/C: 98 % of control
dose: 400.0 mg/kg/injection, schedule: Q01DX001 (ip), vehicle: saline with Tween-80
  T/C: 90 % of control

## CC1NC(=O)N(Cc2ccccc2Cl)C1=O (centres undefined)
dose: 50.0 mg/kg/injection, schedule: Q01DX005 (ip), vehicle: Klucel (hydroxypropylcellulose) (HPC)
  T/C: 110 % of control
dose: 100.0 mg/kg/injection, schedule: Q01DX005 (ip), vehicle: Klucel (hydroxypropylcellulose) (HPC)
  T/C: 106 % of control
dose: 200.0 mg/kg/injection, schedule: Q01DX005 (ip), vehicle: Klucel (hydroxypropylcellulose) (HPC)
  T/C: 110 % of control

## CC1CN(C(=O)Nc2ccc(Cl)c(Cl)c2)C(=O)O1 (centres undefined)
dose: 100.0 mg/kg/injection, schedule: Q04DX003 (ip), vehicle: Klucel (hydroxypropylcellulose) (HPC)
  T/C: 101 % of control
dose: 200.0 mg/kg/injection, schedule: Q04DX003 (ip), vehicle: Klucel (hydroxypropylcellulose) (HPC)
  T/C: 99 % of control
dose: 400.0 mg/kg/injection, schedule: Q04DX003 (ip), vehicle: Klucel (hydroxypropylcellulose) (HPC)
  T/C: 100 % of control

## NCCC(=O)OCN1C(=O)C2C3C=CC(C2C1=O)C1C2C(=O)N(COC(=O)CCN)C(=O)C2C31 (centres undefined)
dose: 12.5 mg/kg/injection, schedule: Q01DX009 (ip), vehicle: water
  T/C: 88 % of control
dose: 25.0 mg/kg/injection, schedule: Q01DX009 (ip), vehicle: water
  T/C: 102 % of control
dose: 50.0 mg/kg/injection, schedule: Q01DX009 (ip), vehicle: water
  T/C: 99 % of control
dose: 100.0 mg/kg/injection, schedule: Q01DX009 (ip), vehicle: water
  T/C: 100 % of control
dose: 200.0 mg/kg/injection, schedule: Q01DX009 (ip), vehicle: water
  T/C: 118 % of control

## CN1C(=O)CNC(=O)c2ccc(Cl)cc21
dose: 50.0 mg/kg/injection, schedule: Q01DX005 (ip), vehicle: saline with Tween-80
  T/C: 108 % of control
dose: 100.0 mg/kg/injection, schedule: Q01DX005 (ip), vehicle: saline with Tween-80
  T/C: 90 % of control
dose: 200.0 mg/kg/injection, schedule: Q01DX005 (ip), vehicle: saline with Tween-80
  T/C: 115 % of control

## CC1=N/C(=C\c2ccccc2Br)C(=O)O1
[1]
  T/C: 114 % of control
[2]
  T/C: 119 % of control
[3]
  T/C: 119 % of control

## COc1cc2cc3c4cc(OC)c(OC)cc4cc[n+]3c(C)c2cc1OC
dose: 25.0 mg/kg/injection, schedule: Q01DX009 (ip), vehicle: other
  T/C: 155 % of control
dose: 50.0 mg/kg/injection, schedule: Q01DX009 (ip), vehicle: other
  T/C: 152 % of control and 169 % of control and 178 % of control
dose: 50.0 mg/kg/injection, schedule: Q01DX009 (ip), vehicle: saline sonified
  T/C: 109 % of control
dose: 50.0 mg/kg/injection, schedule: Q04DX003 (ip), vehicle: other
  T/C: 156 % of control and 158 % of control
dose: 100.0 mg/kg/injection, schedule: Q01DX009 (ip), vehicle: other
  T/C: 172 % of control and 189 % of control and 198 % of control
dose: 100.0 mg/kg/injection, schedule: Q01DX009 (ip), vehicle: saline sonified
  T/C: 109 % of control
dose: 100.0 mg/kg/injection, schedule: Q01DX009 (oral), vehicle: saline
  T/C: 104 % of control
dose: 100.0 mg/kg/injection, schedule: Q04DX003 (ip), vehicle: other
  T/C: 153 % of control and 169 % of control and 177 % of control
dose: 200.0 mg/kg/injection, schedule: Q01DX001 (oral), vehicle: saline
  T/C: 104 % of control
dose: 200.0 mg/kg/injection, schedule: Q01DX009 (ip), vehicle: other
  T/C: 153 % of control and 162 % of control
dose: 200.0 mg/kg/injection, schedule: Q01DX009 (ip), vehicle: saline sonified
  T/C: 109 % of control
dose: 200.0 mg/kg/injection, schedule: Q01DX009 (oral), vehicle: saline
  T/C: 104 % of control
dose: 200.0 mg/kg/injection, schedule: Q04DX003 (ip), vehicle: other
  T/C: 166 % of control (2×) and 199 % of control
dose: 200.0 mg/kg/injection, schedule: Q04DX003 (oral), vehicle: saline
  T/C: 104 % of control
dose: 400.0 mg/kg/injection, schedule: Q01DX001 (oral), vehicle: saline
  T/C: 100 % of control
dose: 400.0 mg/kg/injection, schedule: Q01DX009 (ip), vehicle: other
  T/C: 182 % of control
dose: 400.0 mg/kg/injection, schedule: Q01DX009 (ip), vehicle: saline sonified
  T/C: 90 % of control
dose: 400.0 mg/kg/injection, schedule: Q01DX009 (oral), vehicle: saline
  T/C: 100 % of control
dose: 400.0 mg/kg/injection, schedule: Q04DX003 (ip), vehicle: other
  T/C: 161 % of control and 165 % of control and 191 % of control
dose: 400.0 mg/kg/injection, schedule: Q04DX003 (ip), vehicle: saline sonified
  T/C: 150 % of control
dose: 400.0 mg/kg/injection, schedule: Q04DX003 (oral), vehicle: saline
  T/C: 104 % of control
dose: 800.0 mg/kg/injection, schedule: Q01DX001 (oral), vehicle: saline
  T/C: 104 % of control
dose: 800.0 mg/kg/injection, schedule: Q04DX003 (oral), vehicle: saline
  T/C: 109 % of control

## COc1ccc(/C=C/C(=O)c2ccc(OC)c(OC)c2)cc1OC
dose: 100.0 mg/kg/injection, schedule: Q04DX003 (ip), vehicle: saline with Tween-80
  T/C: 90 % of control
dose: 200.0 mg/kg/injection, schedule: Q04DX003 (ip), vehicle: saline with Tween-80
  T/C: 95 % of control
dose: 400.0 mg/kg/injection, schedule: Q04DX003 (ip), vehicle: saline with Tween-80
  T/C: 95 % of control

## O=C1C(=C2C=CN(CCN3CCCC3)C=C2)C(=O)c2ccccc21
[7]
  T/C: 94 % of control
dose: 100.0 mg/kg/injection, schedule: Q01DX009 (ip), vehicle: Klucel (hydroxypropylcellulose) (HPC)
  T/C: 99 % of control
dose: 200.0 mg/kg/injection, schedule: Q01DX009 (ip), vehicle: Klucel (hydroxypropylcellulose) (HPC)
  T/C: 99 % of control
